Measured values taken from patent US11377425B1, “Small molecule modulators of IL-17” (LEO Pharma A/S, priority 2018, dated 2022).

The molecules below were run against T1, human IL-17AA (Homo sapiens, UniProt Q16552) (assay: IL-8 release assay in human epithelial keratinocytes adult (HEKa)). Settings: HEKa cells, 3 ng/mL HEK-human IL-17AA + 10 ng/mL human TNFalpha; read-out: Rel EC50 IL-8 release assay.
T1 construct: host or cells: HEK (human embryonic kidney) cells
T1 sequence (Q16552 24-155): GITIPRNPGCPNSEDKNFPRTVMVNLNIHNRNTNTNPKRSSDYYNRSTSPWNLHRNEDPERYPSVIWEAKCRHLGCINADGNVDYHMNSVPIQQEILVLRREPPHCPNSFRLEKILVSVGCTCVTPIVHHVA
Format: cell-based
Method: Example 138: IL-8 Release Assay in Human Epithelial Keratinocytes Adult (HEKa)
Keratinocytes were seeded at 3500 cells/well in 384-well ViewPlates (Perkin Elmer) in Epilife medium (Thermo Fisher) containing human keratinocyte growth supplement (HKGS) without hydrocortisone and incubated in a humid incubator at 37° C. 5% CO2, overnight. The following day growth medium was removed and 25 μl fresh Epilife medium added. 75 nL test compound in 100% DMSO was added into each well reserved for test compounds, by the use of acoustic pipetting. The remaining wells received an equal volume of DMSO only, as vehicle control, or terfenadine in DMSO, as a positive control for any cytotoxic compounds. Subsequently, another 25 μL Epilife medium was added to each well. Finally, wells containing test compounds and wells prepared to yield maximum stimulation received […] of 9 ng/mL recombinant, human embryonic kidney cell (HEK)-derived human IL-17AA+30 ng/mL human TNF-alpha, in Epilife medium. Wells prepared to define 100% inhibition of IL-17 effects received 25 μL of 30 ng/mL human TNF-alpha alone, in Epilife medium. Final concentrations were 3 ng/mL HEK-human IL-17AA+10 ng/mL human TNFalpha (maximum stimulation) and 10 ng/mL human TNFalpha alone (100% inhibition, Emax), respectively. Cells were incubated for 68-72 hours in the incubator. IL-8 released from the cells was measured by the use of a commercial homogenous time-resolved fluorescence (HTRF) assay (CisBio). 2 μL cell culture supernatant was transferred to a 384-well Proxiplate. 5 μL HTRF reagent was added and the plates incubated sealed in the dark for 3-22 hours at room temperature. Time-resolved fluorescence was read at 665 vs 620 nm, with excitation at 320 nm, and IL-8 levels calculated as percent of controls. Reduction of the amount of secreted IL-8 indicates decreased IL-17 signaling. Concentration response curves were fitted by the use of a four-parameter logistic equation. Relative IC50 and Emax were reported from curves showing acceptable fit (r^2>0.9). Cytotoxicity was measured in the cell-containing Viewplates following addition of 7 μL PrestoBlue (Thermo Fisher) and incubation for 2.5-3 hours at room temperature, by measuring fluorescence at 615 nm (excitation at 535 nm). Fluorescence was directly proportional to the amount of metabolic activity. Reduction of fluorescence signal indicated cytotoxicity.
Compounds of the present invention were tested in the IL-8 release assay in human epithelial keratinocytes.
Compounds having a Relative EC50 of X; wherein X<100 nM; are indicated with *
Compounds having a Relative EC50 of X; wherein 100 nM<X<1000 nM; are indicated with **
Compounds having a Relative EC50 of X; wherein 1000 nM<X; are indicated with ***
Work on `Cn1cncc1-c1ccc(NC(=O)[C@H](Cc2ccccc2Cl)NC(=O)OC(C)(C)C)cc1` [Example 97, tert-butyl N-[(1S)-1-[(2-chlorophenyl)methyl]-2-[4-(3-methylimidazol-4-yl)anilino]-2-oxo-ethyl]carbamate] yielded an EC50 greater than 1000 nM.
Work on `Cc1n[nH]c(C)c1-c1ccc(NC(=O)[C@@H](NC(=O)C2(F)CC2)C2CCC(F)(F)CC2)cc1` [Example 67, N-[(1S)-1-(4,4-difluorocyclohexyl)-2-[4-(3,5-dimethyl-1H-pyrazol-4-yl)anilino]-2-oxo-ethyl]-1-fluoro-cyclopropanecarboxamide] yielded an EC50 greater than 1000 nM.
With `Cc1n[nH]c(C)c1-c1ccc(NC(=O)[C@@H](NC(=O)c2ccn(C(C)C#N)n2)C(C2CC2)C2CC2)cc1` (stereo partly drawn) [Example 172, 1-(1-cyanoethyl)-N-[(1S)-1-(dicyclopropylmethyl)-2-[4-(3,5-dimethyl-1H-pyrazol-4-yl)anilino]-2-oxo-ethyl]pyrazole-3-carboxamide] the EC50 was greater than 1000 nM.
Molecule `Cn1cncc1-c1ccc(NC(=O)[C@@H](NC(=O)c2ccnn2C)[C@@H]2CCc3ccccc32)cc1` [Example 376, N-[(1S)-1-[(1R)-indan-1-yl]-2-[4-(3-methylimidazol-4-yl)anilino]-2-oxo-ethyl]-2-methyl-pyrazole-3-carboxamide] has an EC50 greater than 1000 nM.
In the case of `Cc1n[nH]c(C)c1-c1ccc(NC(=O)[C@@H](NC(=O)c2ccnn2C(C)C)C2C3CC4CC(C3)CC2C4)cc1` (stereo partly drawn) [Example 200, N-[(1S)-1-(2-adamantyl)-2-[4-(3,5-dimethyl-1H-pyrazol-4-yl)anilino]-2-oxo-ethyl]-2-isopropyl-pyrazole-3-carboxamide], the EC50 is reported as less than 100 nM.
With `Cc1n[nH]c(C)c1-c1ccc(NC(=O)[C@@H](NC(=O)c2ccnn2C)C(C2CC2)C2CC2)cc1` [Example 117, N-[(1S)-1-(dicyclopropylmethyl)-2-[4-(3,5-dimethyl-1H-pyrazol-4-yl)anilino]-2-oxo-ethyl]-2-methyl-pyrazole-3-carboxamide] the EC50 was less than 100 nM.
`Cc1[nH]nc(C(C)(C)O)c1-c1ccc(NC(=O)[C@@H](NC(=O)OC(C)(C)C)C2CCCCC2)cc1` [Example 436, tert-butyl N-[(1S)-1-cyclohexyl-2-[4-[5-(1-hydroxy-1-methyl-ethyl)-3-methyl-1H-pyrazol-4-yl]anilino]-2-oxo-ethyl]carbamate] showed an EC50 greater than 1000 nM.
`Cc1n[nH]c(C)c1-c1ccc(NC(=O)[C@@H](NC(=O)c2ccnn2CCC(O)C(F)(F)F)C(C2CC2)C2CC2)cc1` (stereo partly drawn) [Example 179, N-[(1S)-1-(dicyclopropylmethyl)-2-[4-(3,5-dimethyl-1H-pyrazol-4-yl)anilino]-2-oxo-ethyl]-2-(4,4,4-trifluoro-3-hydroxy-butyl)pyrazole-3-carboxamide] showed an EC50 of less than 100 nM.
`Cc1n[nH]c(C)c1-c1ccc(NC(=O)[C@@H](NC(=O)c2ccnn2C)[C@@H]2CCc3ccc(Cl)cc32)cc1` [Example 77, N-[(1S)-1-[(1R)-6-chloroindan-1-yl]-2-[4-(3,5-dimethyl-1H-pyrazol-4-yl)anilino]-2-oxo-ethyl]-2-methyl-pyrazole-3-carboxamide] was tested, and the EC50 was 100 to 1000 nM.
In the case of `Cc1n[nH]c(C)c1-c1ccc(NC(=O)[C@@H](NC(=O)c2ccnn2C(C)C)[C@H]2CCOc3ccc(F)cc32)cc1` [Example 289, N-[(1S)-2-[4-(3,5-dimethyl-1H-pyrazol-4-N yl)anilino]-1-[(4S)-6-fluorochroman-4-yl]-2-oxo-ethyl]-2-isopropyl-pyrazole-3-carboxamide], the EC50 is reported as less than 100 nM.
`Cc1n[nH]c(C)c1-c1ccc(NC(=O)[C@@H](NC(=O)O[C@@H](C)CC[C@H](C)O)C(C2CC2)C2CC2)cc1` [Example 481, [(1S,4S)-4-hydroxy-1-methyl-pentyl] N-[(1S)-1-(dicyclopropylmethyl)-2-[4-(3,5-dimethyl-1H-pyrazol-4-yl)anilino]-2-oxo-ethyl]carbamate] showed an EC50 greater than 1000 nM.
`CCn1nccc1C(=O)NC(C(=O)Nc1ccc(-c2c(C)n[nH]c2C)cc1)C(C1CCC1)C1CCC1` (racemic) [Example 35, N-[1-[di(cyclobutyl)methyl]-2-[4-(3,5-dimethyl-1H-pyrazol-4-yl)anilino]-2-oxo-ethyl]-2-ethyl-pyrazole-3-carboxamide] showed an EC50 of less than 100 nM.
With `Cc1n[nH]c(C)c1-c1ccc(NC(=O)C(NC(=O)c2ccnn2C)C2CCC(C)(C)C2)cc1` (stereo not shown) [Example 266, N-[1-(3,3-dimethylcyclopentyl)-2-[4-(3,5-dimethyl-1H-pyrazol-4-yl)anilino]-2-oxo-ethyl]-2-methyl-pyrazole-3-carboxamide] the EC50 was 100 to 1000 nM.
`Cc1n[nH]c(C)c1-c1ccc(NC(=O)[C@@H](NC(=O)c2ccnn2CCCO)[C@@H]2CC(C)(C)CCC2(F)F)cc1` [Example 209, N-[(1S)-1-[(1S)-2,2-difluoro-5,5-dimethyl-cyclohexyl]-2-[4-(3,5-dimethyl-1H-pyrazol-4-yl)anilino]-2-oxo-ethyl]-2-(3-hydroxypropyl)pyrazole-3-carboxamide] showed an EC50 of less than 100 nM.
Work on `Cc1n[nH]c(C)c1-c1ccc(NC(=O)[C@@H](NC(=O)c2ccnn2CC(F)F)C(C2CC2)C2CC2)cc1` [Example 115, N-[(1S)-1-(dicyclopropylmethyl)-2-[4-(3,5-dimethyl-1H-pyrazol-4-yl)anilino]-2-oxo-ethyl]-2-(2,2-difluoroethyl)pyrazole-3-carboxamide] yielded an EC50 of less than 100 nM.
For `Cc1n[nH]c(C)c1-c1ccc(NC(=O)[C@@H](NC(=O)c2cnnn2C(C)C)C(C2CCC2)C2CCC2)cc1` [Example 273, N-[(1S)-1-[di(cyclobutyl)methyl]-2-[4-(3,5-dimethyl-1H-pyrazol-4-yl)anilino]-2-oxo-ethyl]-3-isopropyl-triazole-4-carboxamide], the EC50 was less than 100 nM.
In the case of `Cc1cn[nH]c1-c1ccc(NC(=O)[C@@H](NC(=O)c2ccnn2C(C)C)C(C2CC2)C2CC2)cc1` [Example 382, N-[(1S)-1-(dicyclopropylmethyl)-2-[4-(4-methyl-1H-pyrazol-5-yl)anilino]-2-oxo-ethyl]-2-isopropyl-pyrazole-3-carboxamide], the EC50 is reported as 100 to 1000 nM.
`CC(C)C[C@H](NC(=O)OC(C)(C)C)C(=O)Nc1ccc(-c2cncn2C)cc1` [Example 96, tert-butyl N-[(1S)-3-methyl-1-[[4-(3-methylimidazol-4-yl)phenyl]carbamoyl]butyl] carbamate] showed an EC50 greater than 1000 nM.
`CNc1[nH]nc(C)c1-c1ccc(NC(=O)[C@@H](NC(=O)c2ccnn2C)C2CCCCC2)cc1` [Example 452, N-[(1S)-1-cyclohexyl-2-[4-[5-methyl-3-(methylamino)-1H-pyrazol-4-yl]anilino]-2-oxo-ethyl]-2-methyl-pyrazole-3-carboxamide] gave an EC50 greater than 1000 nM.
With `Cc1n[nH]c(C)c1-c1ccc(NC(=O)[C@@H](NC(=O)c2ccnn2C)[C@H]2CCCCC(F)(F)C2)cc1` [Example 7, N-[(1S)-1-[(1S)-3,3-difluorocycloheptyl]-2-[4-(3,5-dimethyl-1H-pyrazol-4-yl)anilino]-2-oxo-ethyl]-2-methyl-pyrazole-3-carboxamide] the EC50 was 100 to 1000 nM.
For `Cc1n[nH]c(C)c1-c1ccc(NC(=O)[C@@H](NC(=O)c2ccnn2C(C)C)[C@@H](C)C2CC2)cc1` [Example 283, N-[(1S,2S)-2-cyclopropyl-1-[4-(3,5-dimethyl-1H-pyrazol-4-yl)phenyl]carbamoyl] propyl-2-isopropyl-pyrazole-3-carboxamide], the EC50 was 100 to 1000 nM.
Work on `Cc1n[nH]c(C)c1-c1ccc(NC(=O)[C@@H](NC(=O)c2ccnn2C)[C@H]2CCc3ccc(C#N)cc32)cc1` [Example 80, N-[(1S)-1-[(1S)-6-cyanoindan-1-yl]-2-[4-(3,5-dimethyl-1H-pyrazol-4-yl)anilino]-2-oxo-ethyl]-2-methyl-pyrazole-3-carboxamide] yielded an EC50 of 100 to 1000 nM.
